34 molecules from paper PMC3265452 (PLoS Neglected Tropical Diseases, 2012) can be followed below.

Counter-ions that a name gives are not always drawn.

In the first assay the target is AaDOP2 (Aedes aegypti, UniProt H6D5H2). Nature of the assay: AaDOP2 antagonist screen of the LOPAC1280 library (HEK-CRELuc-Aadop2 cells, luminescence). The assay is classed as cell-based.
Sequence of AaDOP2 (H6D5H2 1-476): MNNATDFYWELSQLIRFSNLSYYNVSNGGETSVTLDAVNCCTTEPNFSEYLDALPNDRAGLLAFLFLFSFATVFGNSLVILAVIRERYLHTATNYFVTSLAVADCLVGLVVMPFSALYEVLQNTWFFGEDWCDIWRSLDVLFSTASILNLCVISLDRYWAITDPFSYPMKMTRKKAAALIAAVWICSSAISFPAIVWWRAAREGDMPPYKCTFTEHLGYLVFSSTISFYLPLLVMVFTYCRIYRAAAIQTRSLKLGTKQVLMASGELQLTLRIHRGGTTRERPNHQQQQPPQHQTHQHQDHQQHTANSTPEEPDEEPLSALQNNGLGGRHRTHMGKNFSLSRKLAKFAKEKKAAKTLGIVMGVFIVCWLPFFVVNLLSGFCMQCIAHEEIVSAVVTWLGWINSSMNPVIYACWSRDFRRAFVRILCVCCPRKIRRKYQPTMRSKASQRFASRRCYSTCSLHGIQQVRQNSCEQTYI
Conditions: not given
In the case of `NNCCc1ccccc1` [Compound 962, Phenelzine sulfate], the “Compound effect (percent receptor signaling in presence of test compound, relative lux units relative to the SCH23390 control)” value came out at 93.

Take `CN(C)CCC(c1ccccc1)c1ccccn1` (stereo not shown) [Compound 963, Pheniramine maleate]: the “Compound effect (percent receptor signaling in presence of test compound, relative lux units relative to the SCH23390 control)” value was 91.

With `O=C(O)CP(=O)(O)O` [Compound 964, Phosphonoacetic acid], the “Compound effect (percent receptor signaling in presence of test compound, relative lux units relative to the SCH23390 control)” value turned out to be 84.

Regarding `CCC1(c2ccccc2)C(=O)NCNC1=O` [Compound 967, Primidone], the “Compound effect (percent receptor signaling in presence of test compound, relative lux units relative to the SCH23390 control)” value came out at 94.

As for `CN1CCN(CC(=O)N2c3ccccc3C(=O)Nc3cccnc32)CC1` [Compound 969, Pirenzepine dihydrochloride], the “Compound effect (percent receptor signaling in presence of test compound, relative lux units relative to the SCH23390 control)” value was determined as 114.

With `NCCCCN` [Compound 970, Putrescine dihydrochloride], the “Compound effect (percent receptor signaling in presence of test compound, relative lux units relative to the SCH23390 control)” value worked out at 88.

Consider `Cc1ccc(N(CC2=NCCN2)c2cccc(O)c2)cc1` [Compound 971, Phentolamine mesylate], for which the “Compound effect (percent receptor signaling in presence of test compound, relative lux units relative to the SCH23390 control)” value was 42.

On to `CCC(=O)c1ccc2c(c1)N(CCCN(C)C)c1ccccc1S2` [Compound 972, Propionylpromazine hydrochloride], for which the “Compound effect (percent receptor signaling in presence of test compound, relative lux units relative to the SCH23390 control)” value turned out to be 15.

As to `COc1cc2nc(N3CCN(C(=O)c4ccco4)CC3)nc(N)c2cc1OC` [Compound 973, Prazosin hydrochloride], the “Compound effect (percent receptor signaling in presence of test compound, relative lux units relative to the SCH23390 control)” value turned out to be 81.

For `O=C(CCc1ccc(O)cc1)c1c(O)cc(O)cc1O` [Compound 974, Phloretin], the “Compound effect (percent receptor signaling in presence of test compound, relative lux units relative to the SCH23390 control)” value amounted to 99.

Turning to `C#CCN(C)Cc1ccccc1` [Compound 975, Pargyline hydrochloride], the “Compound effect (percent receptor signaling in presence of test compound, relative lux units relative to the SCH23390 control)” value came to 95.

For the molecule `CCCCCCCCCCCCCC(=O)O[C@@H]1[C@@H](C)[C@@]2(O)[C@@H](C=C(CO)C[C@]3(O)C(=O)C(C)=C[C@@H]23)[C@@H]2C(C)(C)[C@]12OC(C)=O` [Compound 976, Phorbol 12-myristate 13-acetate], the “Compound effect (percent receptor signaling in presence of test compound, relative lux units relative to the SCH23390 control)” value amounted to 12.

With `C=CC1=C(C)c2cc3[nH]c(cc4nc(cc5[nH]c(cc1n2)c(C)c5CCC(=O)O)C(CCC(=O)O)=C4C)c(C)c3C=C` [Compound 978, Protoporphyrin IX disodium], the “Compound effect (percent receptor signaling in presence of test compound, relative lux units relative to the SCH23390 control)” value was 86.

Consider `CCCCC1C(=O)N(c2ccccc2)N(c2ccccc2)C1=O` [Compound 980, Phenylbutazone], for which the “Compound effect (percent receptor signaling in presence of test compound, relative lux units relative to the SCH23390 control)” value amounted to 96.

Turning to `COc1ccc(C(=O)NCc2cccnc2)cc1C(=O)NCc1cccnc1` [Compound 981, Picotamide], the “Compound effect (percent receptor signaling in presence of test compound, relative lux units relative to the SCH23390 control)” value was determined as 84.

`N[C@@H]1C[C@H]1c1ccccc1` [Compound 982, Tranylcypromine hydrochloride]: the “Compound effect (percent receptor signaling in presence of test compound, relative lux units relative to the SCH23390 control)” value was 73.

Turning to `CC(C)NC[C@H](O)COc1cccc2ccccc12` [Compound 983, (S)-Propranolol hydrochloride], the “Compound effect (percent receptor signaling in presence of test compound, relative lux units relative to the SCH23390 control)” value was found to be 90.

For the molecule `CNCCCC1c2ccccc2C=Cc2ccccc21` [Compound 986, Protriptyline hydrochloride], the “Compound effect (percent receptor signaling in presence of test compound, relative lux units relative to the SCH23390 control)” value is on record as 18.

For the molecule `CCCN1C[C@H](CSC)C[C@@H]2c3cccc4[nH]cc(c34)C[C@H]21` [Compound 987, Pergolide methanesulfonate], the “Compound effect (percent receptor signaling in presence of test compound, relative lux units relative to the SCH23390 control)” value stood at 53.

`O=c1[nH]c2ccccc2c2ccccc12` [Compound 988, 6(5H)-Phenanthridinone]: the “Compound effect (percent receptor signaling in presence of test compound, relative lux units relative to the SCH23390 control)” value stood at 90.

`CC(=O)[C@H]1CC[C@H]2[C@@H]3CC[C@H]4C[C@H](O)CC[C@]4(C)[C@H]3CC[C@]12C` [Compound 989, 5alpha-Pregnan-3alpha-ol-20-one]: the “Compound effect (percent receptor signaling in presence of test compound, relative lux units relative to the SCH23390 control)” value stood at 73.

For the molecule `CC(C)[N+](C)(CCOC(=O)C1c2ccccc2Oc2ccccc21)C(C)C` [Compound 990, Propantheline bromide], the “Compound effect (percent receptor signaling in presence of test compound, relative lux units relative to the SCH23390 control)” value is listed as 71.

`O=S(=O)(O)C1CCNCC1` [Compound 991, Piperidine-4-sulphonic acid]: the “Compound effect (percent receptor signaling in presence of test compound, relative lux units relative to the SCH23390 control)” value worked out at 105.

Regarding `NC[C@@H]1O[C@H](O[C@H]2[C@@H](O)[C@H](O[C@@H]3[C@@H](O)[C@H](N)C[C@H](N)[C@H]3O[C@H]3O[C@H](CO)[C@@H](O)[C@H](O)[C@H]3N)O[C@@H]2CO)[C@H](N)[C@@H](O)[C@@H]1O` [Compound 994, Paromomycin sulfate], the “Compound effect (percent receptor signaling in presence of test compound, relative lux units relative to the SCH23390 control)” value worked out at 96.

For `O.c1cnc2c(c1)ccc1cccnc12` [Compound 995, 1,10-Phenanthroline monohydrate], the “Compound effect (percent receptor signaling in presence of test compound, relative lux units relative to the SCH23390 control)” value is on record as 95.

`CCN(CC)CCNC(=O)c1ccc(N)cc1` [Compound 996, Procainamide hydrochloride]: the “Compound effect (percent receptor signaling in presence of test compound, relative lux units relative to the SCH23390 control)” value is 100.

Turning to `CCCNC(C)C(=O)Nc1ccccc1C` (stereo not shown) [Compound 997, Prilocaine hydrochloride], the “Compound effect (percent receptor signaling in presence of test compound, relative lux units relative to the SCH23390 control)” value came to 95.

For `CCCn1cnc2c1c(=O)n(CCCCC(C)=O)c(=O)n2C` [Compound 998, Propentofylline], the “Compound effect (percent receptor signaling in presence of test compound, relative lux units relative to the SCH23390 control)” value was 87.

Turning to `CCCNC[C@H](O)COc1ccccc1C(=O)CCc1ccccc1.Cl` [Compound 999, (S)-(-)-propafenone hydrochloride], the “Compound effect (percent receptor signaling in presence of test compound, relative lux units relative to the SCH23390 control)” value turned out to be 77.

In the case of `CN(C)C(=O)Oc1ccc[n+](C)c1` [Compound 1000, Pyridostigmine bromide], the “Compound effect (percent receptor signaling in presence of test compound, relative lux units relative to the SCH23390 control)” value was found to be 106.

Staying with this assay, now noted: 10 µM compound, 300 nM dopamine, 2 hr; hit = compound effect <20.
Take `Br.Br.N=C(N)SCCc1cccc(CCSC(=N)N)c1` [Compound 977, 1,3-PBIT dihydrobromide]: the “Compound effect (percent receptor signaling in presence of test compound, relative lux units relative to the SCH23390 control)” value is on record as 117%.

`Br.Br.N=C(N)SCCc1ccc(CCSC(=N)N)cc1` [Compound 979, 1,4-PBIT dihydrobromide]: the “Compound effect (percent receptor signaling in presence of test compound, relative lux units relative to the SCH23390 control)” value amounted to 120%.

For the molecule `N.S=C(S)N1CCCC1` [Compound 984, Ammonium pyrrolidinedithiocarbamate], the “Compound effect (percent receptor signaling in presence of test compound, relative lux units relative to the SCH23390 control)” value came to 85%.

Regarding `O=C(O)/C=C\C(=O)O.c1cnc(N2CCN(Cc3ccc4c(c3)OCO4)CC2)nc1` [Compound 993, Piribedil maleate], the “Compound effect (percent receptor signaling in presence of test compound, relative lux units relative to the SCH23390 control)” value was 120%.

Still in this assay, the particulars now being: read-out: % of the SCH23390 effect (percent inhibition of receptor response relative to the SCH23390 control).
As to `CCC(=O)c1ccc2c(c1)N(CCCN(C)C)c1ccccc1S2` [Compound 972, Propionylpromazine hydrochloride], the inhibition at 10 µM amounted to 85%.

With `CCCCCCCCCCCCCC(=O)O[C@@H]1[C@@H](C)[C@@]2(O)[C@@H](C=C(CO)C[C@]3(O)C(=O)C(C)=C[C@@H]23)[C@@H]2C(C)(C)[C@]12OC(C)=O` [Compound 976, Phorbol 12-myristate 13-acetate], the inhibition at 10 µM was found to be 88%.

For `CNCCCC1c2ccccc2C=Cc2ccccc21` [Compound 986, Protriptyline hydrochloride], the inhibition at 10 µM was 82%.

A word on the inhibition: it is the relative decrease from the control value, in per cent.
